From patent EP4257135A1, “BENZIMIDAZOLE DERIVATIVES FOR PULMONARY ARTERIAL HYPERTENSION” (Justus-Liebig-Universität Gießen, priority 2022, dated 2023)

Assays:
PAH-SMCs = test: Apoptosis in PAH smooth muscle cells; type: cell-based, human; settings: vs DMSO
From the text: PAH-FBs wurden mit verschiedenen Konzentrationen der Substanz SGC-CBP30 oder dem Lösungsmittel DMSO inkubiert, um die Zellproliferation und die Induktion von Apoptose 24 Stunden danach zu untersuchen. Die Wirkung der selektiven EP300/CREBBP-Inhibition auf die Zellproliferation wurde durch den Einbau von BrdU (Bromodeoxyuridin, 5-Bromo-2'-Deoxyuridin, BUdR, BrdUrd, Broxuridine) bewertet. Die Wirkung der Substanz SGC-CBP30 oder des Lösungsmittels DMSO auf die Induktion von Apoptose wurde durch Cell Death Detection ELISAPLUS bewertet. Dabei zeigten sich deutliche Unterschiede zwischen der Substanz SGC-CBP30 und dem Lösungsmittel DMSO.
(§1) Das therapeutische Potenzial der EP300/CREBBP-Hemmung durch die Substanz SGC-CBP30 wurde untersucht. Dazu wurde die Wirksamkeit auf PAH-FBs und PAH-SMCs geprüft, die aus den Lungenarterien von menschlichen PAH-Patienten und aus den Lungenarterien von Ratten mit MCT-PAH (Rattenmodell mit Monocrotalin) isoliert wurden. […] Die Wirkung der EP300-Hemmung auf das vaskuläre Remodelling wurde durch Quantifizierung der prozentualen medialen Wanddicke in den mit der Substanz SGC-CBP30 inkubierten PCLS im Vergleich zu den mit DMSO inkubierten Kontrollen bewertet. Dabei zeigten sich deutliche Unterschiede zwischen der Substanz SGC-CBP30 und DMSO.

PAH-PCLS = test: Ex vivo precision-cut lung slices (PCLS) from PAH lungs, medial wall thickness; type: cell-based; settings: PCLS from human PAH lungs; 200 µM on days 2 and 6, fixed day 10; vessels 20-150 µm; vs DMSO
From the text: Lungengewebeproben wurden von Patienten mit IPAH entnommen. Aus den mit 3% niedrigschmelzender Agarose gefüllten Lungenproben von Patienten mit IPAH wurden mit einem Vibratom (Leica Biosystems) Gewebeschnitte (400 µm dick) angefertigt. Die Lungengewebeschnitte wurden in DMEM-GlutaMAX-Medium mit 10 % fetalem Kälberserum, 1 % Penicillin/Streptomycin und 0,1 % Amphotericin B (Thermo Fisher Scientific) kultiviert, und die Behandlung wurde am zweiten Tag eingeleitet. Die Substanz SGC-CBP30 wurde in einer Konzentration von 200 µM an den Tagen 2 und 6 verabreicht. Am 10. Tag wurde das Gewebe in 4% Paraformaldehyd (Roti-Histofix; Carl Roth) fixiert und in Paraffin eingebettet. Die mediale Wanddicke wurde in allen Gefäßen mit einer Größe von 20-150 µm in den Lungenschnitten gemessen.
as §1, with “Dabei zeigten sich deutliche Unterschiede zwischen der Substanz SGC-CBP30 und DMSO.” left out

## COc1ccc(CCc2nc3cc(-c4c(C)noc4C)ccc3n2C[C@H](C)N2CCOCC2)cc1Cl [SGC-CBP30, 2-[2-(3-Chloro-4-methoxyphenyl)ethyl]-5-(3,5-dimethyl-1,2-oxazol-4-yl)-1-[(S)-2-(morpholin-4-yl)propyl]-1H-benzimidazole]
PAH-SMCs
  Apoptoserate: schwächte den hyperproliferativen Phänotyp und die Apoptoserate von PAH-FBs und PAH-SMCs deutlich ab
PAH-PCLS
  mediale Wanddicke der umgestalteten PAs: signifikante Verringerung
